Test systems include 786-0 renal; A498 renal; CAKI-1 renal; HCT-116 colon; NCI-H23 lung; NCI-H460 lung; RPMI-8226 leukemia; SF-268 CNS; SF-295 CNS; SF-539 CNS.
Assay in all cases: growth of human tumour cells (NCI), 48 h

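Growth conditions: 96-well plates. Treatment: test compound, 48 hours, 5 concentrations. Analysis: linear interpolation between bracketing concentrations; unreached endpoints set to highest concentration. At the TGI there is no net growth.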

In the case of `CC(=O)Oc1ccc(-c2c(OC(C)=O)c(OC(C)=O)c(-c3ccc(OC(C)=O)c(OC(C)=O)c3)c(OC(C)=O)c2OC(C)=O)cc1`, the TGI with 786-0 renal was 30.6 µM; in the assay with A498 renal, greater than 100 µM; in the assay with CAKI-1 renal, 51.6 µM; in the assay on HCT-116 colon it was 40.2 µM; in the assay on NCI-H23 lung it was 38 µM; with NCI-H460 lung it was greater than 100 µM. In addition, the TGI in the assay on RPMI-8226 leukemia amounted to 35.4 µM; with SF-268 CNS it was 32.8 µM; in the assay on SF-295 CNS, 21.3 µM; in the assay on SF-539 CNS it was 34.3 µM.

`O=C1C(=O)C(CCCO)(CCCO)CCCCCCCCC1(CCCO)CCCO`: the TGI in the assay on 786-0 renal, in the assay on A498 renal, in the assay on CAKI-1 renal, in the assay with HCT-116 colon, in the assay on NCI-H23 lung and in the assay with NCI-H460 lung was greater than 100 µM throughout. The TGI with RPMI-8226 leukemia was 32 µM; in the assay on SF-268 CNS, greater than 100 µM; with SF-295 CNS it was greater than 100 µM; in the assay with SF-539 CNS, greater than 100 µM.

Take `C1CN(C23OC4(N5CCOCC5)C5C6CC(C7C6C4C72)C53)CCO1` (stereo not given): the TGI in the assay on 786-0 renal, in the assay on A498 renal, in the assay with CAKI-1 renal, in the assay on HCT-116 colon, in the assay on NCI-H23 lung and with NCI-H460 lung was greater than 100 µM each time. In addition, the TGI with RPMI-8226 leukemia, with SF-268 CNS, in the assay with SF-295 CNS and in the assay on SF-539 CNS was greater than 100 µM in each case.

Consider `CCSc1nn(-c2c3ccccc3nc3ccccc23)c(=S)s1`, for which the TGI in the assay with 786-0 renal, in the assay with A498 renal, with CAKI-1 renal, with HCT-116 colon, in the assay with NCI-H23 lung and with NCI-H460 lung was greater than 100 µM in each case. Besides, the TGI with RPMI-8226 leukemia, in the assay with SF-268 CNS, in the assay with SF-295 CNS and in the assay with SF-539 CNS was greater than 100 µM each time.

For `CC1(C)CN=C(c2ccc3ccccc3c2O)N1`, the TGI in the assay on 786-0 renal, in the assay with A498 renal, in the assay with CAKI-1 renal, in the assay on HCT-116 colon, in the assay on NCI-H23 lung and with NCI-H460 lung was greater than 100 µM in each case. Moreover, the TGI was greater than 100 µM with RPMI-8226 leukemia, greater than 100 µM with SF-268 CNS, 9.29 µM in the assay on SF-295 CNS and greater than 100 µM with SF-539 CNS.

As for `CC(CN(C)C)C(O)(c1ccccc1)c1ccccc1` (stereo not given), the TGI in the assay on 786-0 renal, in the assay with A498 renal, with CAKI-1 renal, in the assay with HCT-116 colon, in the assay on NCI-H23 lung and with NCI-H460 lung was greater than 100 µM each time. Further, the TGI with RPMI-8226 leukemia, in the assay on SF-268 CNS, in the assay with SF-295 CNS and with SF-539 CNS was greater than 100 µM throughout.

Regarding `CCOC(=O)c1c(C)n(CCN2CCN(C)CC2)c2ccc(OC)cc12`, the TGI was greater than 100 µM in the assay on 786-0 renal; 73.8 µM with A498 renal; greater than 100 µM in the assay on CAKI-1 renal; greater than 100 µM in the assay with HCT-116 colon; greater than 100 µM in the assay on NCI-H23 lung; greater than 100 µM in the assay on NCI-H460 lung. The TGI with RPMI-8226 leukemia was 49.6 µM; in the assay with SF-268 CNS it was greater than 100 µM; with SF-295 CNS it was greater than 100 µM; in the assay on SF-539 CNS it was 87.1 µM.

For `C[C@@H](CC(O)C(O)C(C)(C)O)C1CCC23CC12CCC1[C@@]2(C)CCC(=O)C(C)(C)C2CC(OC2OC(CO)C(O)C(O)C2O)[C@]13C` (stereo not given in full), the TGI in the assay on 786-0 renal, with A498 renal, in the assay on CAKI-1 renal, with HCT-116 colon, with NCI-H23 lung and in the assay with NCI-H460 lung was greater than 10 µM in each case. Besides, the TGI in the assay with RPMI-8226 leukemia, with SF-268 CNS, in the assay with SF-295 CNS and in the assay with SF-539 CNS was greater than 10 µM each time.

`Clc1cccc(Cl)c1C1ON=C(c2ccccc2)N1C12CC3CC(CC(C3)C1)C2` (stereo not given): the TGI was greater than 100 µM in the assay on 786-0 renal; greater than 100 µM in the assay on A498 renal; greater than 100 µM in the assay on CAKI-1 renal; 59.9 µM in the assay on HCT-116 colon; greater than 100 µM in the assay on NCI-H23 lung; greater than 100 µM with NCI-H460 lung. Besides, the TGI in the assay on RPMI-8226 leukemia was 47.8 µM; in the assay on SF-268 CNS it was greater than 100 µM; in the assay on SF-295 CNS it was greater than 100 µM; in the assay with SF-539 CNS, greater than 100 µM.

Take `CCCS(=O)OC1C(C2COC(C)(C)O2)OC2OC(C)(C)OC21` (stereo not given): the TGI with 786-0 renal is 27.8 µM; in the assay on A498 renal, 97 µM; with CAKI-1 renal it was 28 µM; in the assay on HCT-116 colon it was 19.4 µM; in the assay on NCI-H23 lung, 23.4 µM; in the assay on NCI-H460 lung, greater than 62.1 µM. The TGI is 12.8 µM in the assay with RPMI-8226 leukemia, 62.4 µM with SF-268 CNS, 36.1 µM with SF-295 CNS and 38.4 µM with SF-539 CNS.

As for `C=C1C(=O)O[C@H]2[C@@H](O)[C@H](C)CCC/C(C)=C/CC[C@@]3(C)O[C@@H]3C[C@@H]12`, the TGI in the assay with 786-0 renal amounted to 14.9 µM; in the assay with A498 renal, 25.3 µM; with CAKI-1 renal, 6.9 µM; in the assay with HCT-116 colon, 12.4 µM; in the assay with NCI-H23 lung, 21.8 µM; in the assay on NCI-H460 lung, 16.8 µM. The TGI turned out to be 25.7 µM in the assay on RPMI-8226 leukemia, 22 µM in the assay on SF-268 CNS, 34.9 µM with SF-295 CNS and 11.8 µM in the assay with SF-539 CNS.

As for `Cc1nc2ccccc2n1CCc1nc2ccccc2[nH]1`, the TGI in the assay on 786-0 renal, in the assay with A498 renal, in the assay with CAKI-1 renal, with HCT-116 colon, in the assay on NCI-H23 lung and in the assay on NCI-H460 lung was greater than 100 µM throughout. Besides, the TGI in the assay with RPMI-8226 leukemia, in the assay on SF-268 CNS, with SF-295 CNS and in the assay with SF-539 CNS was greater than 100 µM in each case.

In the case of `CCOc1cc(C=Nc2ccc(Oc3ccc(Cl)cc3)c(Cl)c2)ccc1O`, the TGI in the assay with 786-0 renal came out at 34 µM; in the assay with A498 renal it was 36.6 µM; in the assay on CAKI-1 renal, 59.4 µM; in the assay on HCT-116 colon it was 37.8 µM; with NCI-H23 lung it was 45.6 µM; in the assay with NCI-H460 lung, 43.2 µM. In addition, the TGI turned out to be 82.8 µM with RPMI-8226 leukemia, 32 µM in the assay on SF-268 CNS, 38.8 µM in the assay with SF-295 CNS and 54.7 µM in the assay with SF-539 CNS.

In the case of `Cc1ccc2c3ccc4c(c3n(C)c2c1)C(=O)C=CC4=O`, the TGI with 786-0 renal was 5.63 µM; in the assay on A498 renal, greater than 10 µM; in the assay with CAKI-1 renal, greater than 10 µM; in the assay with HCT-116 colon, 4.95 µM; in the assay on NCI-H23 lung, greater than 10 µM; in the assay with NCI-H460 lung, greater than 10 µM. Besides, the TGI in the assay with RPMI-8226 leukemia was 5.67 µM; with SF-268 CNS it was greater than 10 µM; in the assay on SF-295 CNS, greater than 10 µM; with SF-539 CNS, greater than 9.21 µM.

With `CN(C)CCCN1C(=O)N(CCCN(C)C)c2c3cc(O)ccc3nc3c([N+](=O)[O-])ccc1c23`, the TGI is 27.2 µM with 786-0 renal; 40.3 µM in the assay on A498 renal; 78.2 µM with CAKI-1 renal; 38.2 µM in the assay with HCT-116 colon; 48 µM with NCI-H23 lung; 70.4 µM in the assay with NCI-H460 lung. Besides, the TGI in the assay with RPMI-8226 leukemia was 63.3 µM; in the assay with SF-268 CNS, 26.3 µM; in the assay with SF-295 CNS, greater than 100 µM; with SF-539 CNS, 35.5 µM.

Regarding `O=c1[nH]nc(Cc2ccc([N+](=O)[O-])cc2)[nH]1`, the TGI in the assay on 786-0 renal, with A498 renal, with CAKI-1 renal, in the assay with HCT-116 colon, in the assay with NCI-H23 lung and with NCI-H460 lung was greater than 100 µM throughout. The TGI with RPMI-8226 leukemia, in the assay on SF-268 CNS, in the assay on SF-295 CNS and in the assay on SF-539 CNS was greater than 100 µM throughout.

For the compound `NCCCN1CCN(CCCNc2ccc3ncn4c5ccccc5c(=O)c2c34)CC1`, the TGI in the assay on 786-0 renal came out at 24 µM; with A498 renal, 5.63 µM; with CAKI-1 renal it was 9.02 µM; in the assay on HCT-116 colon, 18.3 µM; in the assay on NCI-H23 lung, 6.98 µM; in the assay on NCI-H460 lung, 6.24 µM. The TGI in the assay with RPMI-8226 leukemia is greater than 25 µM; in the assay with SF-268 CNS, 6.04 µM; with SF-295 CNS it was 15.7 µM; with SF-539 CNS it was 7.19 µM.

With `c1csc(-c2csc(-c3cccs3)c2)c1`, the TGI in the assay on 786-0 renal was greater than 100 µM; with A498 renal it was greater than 100 µM; in the assay with CAKI-1 renal it was greater than 100 µM; with HCT-116 colon it was greater than 100 µM; in the assay on NCI-H23 lung, 63.1 µM; with NCI-H460 lung, greater than 100 µM. The TGI in the assay on RPMI-8226 leukemia is 57.1 µM; in the assay with SF-268 CNS, greater than 100 µM; in the assay with SF-295 CNS, greater than 100 µM; in the assay on SF-539 CNS it was greater than 100 µM.

`CC[N+]1(C)CCC(O)(/C=C/c2ccc(Cl)c(Cl)c2)C(C(=O)/C=C/c2ccc(Cl)c(Cl)c2)C1` (stereo not given): the TGI in the assay with 786-0 renal came out at 3.46 µM; in the assay with A498 renal, 7.12 µM; in the assay with CAKI-1 renal, 12.7 µM; in the assay with HCT-116 colon it was 3 µM; in the assay with NCI-H23 lung, 7.03 µM; in the assay on NCI-H460 lung it was 9.03 µM. Further, the TGI in the assay with RPMI-8226 leukemia was found to be 5.7 µM; in the assay with SF-268 CNS it was 8.54 µM; in the assay with SF-295 CNS, 13.9 µM; in the assay on SF-539 CNS, 9.13 µM.

Consider `COc1cc2c(cc1OCc1ccccc1)NC(=O)[C@@H]1C[C@@H](O)CN1C2=O`, for which the TGI in the assay on 786-0 renal, with A498 renal, with CAKI-1 renal, with HCT-116 colon, in the assay with NCI-H23 lung and with NCI-H460 lung was greater than 100 µM in each case. Besides, the TGI with RPMI-8226 leukemia, in the assay on SF-268 CNS, with SF-295 CNS and in the assay on SF-539 CNS was greater than 100 µM each time.

These data come from PubChem BioAssay (NCI).
